pIC50: −log10 of the molar value.
System: MCF7 multi-cell spheroids with HUVEC/MSC, viability
Assay: Anticancer human tumor MCF7 cell line growth inhibition [IpAb];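 note: spheroids exposed to agents for seven days before readout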
Settings: for pIC50: curve of first compound; for viability, T/C: stronger effect = lower value
How it was run: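 Spheroids of 60% malignant cells, 25% HUVEC and 15% MSC were exposed to targeted agents combined with ipatasertib or abemaciclib. Doses started at or near clinical Cmax (10 microM when unknown) and fell in half-log steps.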

[1] = second compound 0.1 µM, first compound 0.0316 µM
[2] = second compound 0.1 µM, first compound 0.1 µM
[3] = second compound 0.1 µM, first compound 0.316 µM
[4] = second compound 0.1 µM, first compound 1 µM
[5] = second compound 0.1 µM, first compound 3.16 µM
[6] = second compound 0.1 µM, first compound 10 µM
[7] = second compound 0.316 µM, first compound 0.0316 µM
[8] = second compound 0.316 µM, first compound 0.1 µM
[9] = second compound 0.316 µM, first compound 0.316 µM
[10] = second compound 0.316 µM, first compound 1 µM
[11] = second compound 0.316 µM, first compound 3.16 µM
[12] = second compound 0.316 µM, first compound 10 µM
[13] = second compound 1 µM, first compound 0.0316 µM
[14] = second compound 1 µM, first compound 0.1 µM
[15] = second compound 1 µM, first compound 0.316 µM
[16] = second compound 1 µM, first compound 1 µM
[17] = second compound 1 µM, first compound 3.16 µM
[18] = second compound 1 µM, first compound 10 µM
[19] = second compound 3.16 µM, first compound 0.0316 µM
[20] = second compound 3.16 µM, first compound 0.1 µM
[21] = second compound 3.16 µM, first compound 0.316 µM
[22] = second compound 3.16 µM, first compound 1 µM
[23] = second compound 3.16 µM, first compound 3.16 µM
[24] = second compound 3.16 µM, first compound 10 µM
[25] = second compound 10 µM, first compound 0.0316 µM
[26] = second compound 10 µM, first compound 0.1 µM
[27] = second compound 10 µM, first compound 0.316 µM
[28] = second compound 10 µM, first compound 1 µM
[29] = second compound 10 µM, first compound 3.16 µM
[30] = second compound 10 µM, first compound 10 µM

C=CC(=O)N1CCN(c2nc(=O)n(-c3c(C)ccnc3C(C)C)c3nc(-c4c(O)cccc4F)c(F)cc23)C(C)C1 (stereo not given) + CC(C)NCC(C(=O)N1CCN(c2ncnc3c2C(C)CC3O)CC1)c1ccc(Cl)cc1
pIC50 (second compound 0.1 µM): 5.08
pIC50 (second compound 0.316 µM): 5.16
pIC50 (second compound 1 µM): 5.57
pIC50 (second compound 3.16 µM): 5.97
pIC50 (second compound 10 µM): > 7.50
viability, T/C [1]: 82.4%
viability, T/C [2]: 99.8%
viability, T/C [3]: 100%
viability, T/C [4]: 90.8%
viability, T/C [5]: 78.3%
viability, T/C [6]: 44.5%
viability, T/C [7]: 79.5%
viability, T/C [8]: 87.3%
viability, T/C [9]: 77.1%
viability, T/C [10]: 73.3%
viability, T/C [11]: 68.4%
viability, T/C [12]: 41.6%
viability, T/C [13]: 74.5%
viability, T/C [14]: 73.3%
viability, T/C [15]: 65.4%
viability, T/C [16]: 65.8%
viability, T/C [17]: 46.6%
viability, T/C [18]: 32.8%
viability, T/C [19]: 58.6%
viability, T/C [20]: 53.4%
viability, T/C [21]: 56.6%
viability, T/C [22]: 50.2%
viability, T/C [23]: 38.7%
viability, T/C [24]: 22.6%
viability, T/C [25]: 47.7%
viability, T/C [26]: 41.3%
viability, T/C [27]: 44%
viability, T/C [28]: 36.3%
viability, T/C [29]: 40.9%
viability, T/C [30]: 22.6%

CC(C)(C)c1cnc(CSc2cnc(NC(=O)C3CCNCC3)s2)o1 + CC(C)NCC(C(=O)N1CCN(c2ncnc3c2C(C)CC3O)CC1)c1ccc(Cl)cc1
pIC50 (second compound 0.1 µM): 7.05
pIC50 (second compound 0.316 µM): 7.06
pIC50 (second compound 1 µM): 7.09
pIC50 (second compound 3.16 µM): 7.39
pIC50 (second compound 10 µM): 8.02
viability, T/C (second compound 0.1 µM, first compound 0.00949 µM): 87.9%
viability, T/C (second compound 0.1 µM, first compound 0.03 µM): 98%
viability, T/C (second compound 0.1 µM, first compound 0.0949 µM): 47.7%
viability, T/C (second compound 0.1 µM, first compound 0.3 µM): 22.2%
viability, T/C (second compound 0.1 µM, first compound 0.949 µM): 29.6%
viability, T/C (second compound 0.1 µM, first compound 3 µM): 32.6%
viability, T/C (second compound 0.316 µM, first compound 0.00949 µM): 83.9%
viability, T/C (second compound 0.316 µM, first compound 0.03 µM): 87%
viability, T/C (second compound 0.316 µM, first compound 0.0949 µM): 47.3%
viability, T/C (second compound 0.316 µM, first compound 0.3 µM): 22.4%
viability, T/C (second compound 0.316 µM, first compound 0.949 µM): 29%
viability, T/C (second compound 0.316 µM, first compound 3 µM): 29.9%
viability, T/C (second compound 1 µM, first compound 0.00949 µM): 76.5%
viability, T/C (second compound 1 µM, first compound 0.03 µM): 75.6%
viability, T/C (second compound 1 µM, first compound 0.0949 µM): 45.9%
viability, T/C (second compound 1 µM, first compound 0.3 µM): 21.6%
viability, T/C (second compound 1 µM, first compound 0.949 µM): 25.3%
viability, T/C (second compound 1 µM, first compound 3 µM): 28.9%
viability, T/C (second compound 3.16 µM, first compound 0.00949 µM): 54.8%
viability, T/C (second compound 3.16 µM, first compound 0.03 µM): 61.6%
viability, T/C (second compound 3.16 µM, first compound 0.0949 µM): 26.4%
viability, T/C (second compound 3.16 µM, first compound 0.3 µM): 20.2%
viability, T/C (second compound 3.16 µM, first compound 0.949 µM): 22.2%
viability, T/C (second compound 3.16 µM, first compound 3 µM): 24.9%
viability, T/C (second compound 10 µM, first compound 0.00949 µM): 47.1%
viability, T/C (second compound 10 µM, first compound 0.03 µM): 49.8%
viability, T/C (second compound 10 µM, first compound 0.0949 µM): 14.4%
viability, T/C (second compound 10 µM, first compound 0.3 µM): 17.9%
viability, T/C (second compound 10 µM, first compound 0.949 µM): 21.1%
viability, T/C (second compound 10 µM, first compound 3 µM): 22.1%

Cn1ncc(Cl)c1-c1cc(C(=O)NC(CN)Cc2cccc(F)c2)sc1Cl (stereo not given) + CC(C)NCC(C(=O)N1CCN(c2ncnc3c2C(C)CC3O)CC1)c1ccc(Cl)cc1
pIC50 (second compound 0.1 µM): 5.92
pIC50 (second compound 0.316 µM): 6.00
pIC50 (second compound 1 µM): 5.88
pIC50 (second compound 3.16 µM): 6.25
pIC50 (second compound 10 µM): > 7.50
viability, T/C [1]: 85.2%
viability, T/C [2]: 79.4%
viability, T/C [3]: 74.2%
viability, T/C [4]: 59.2%
viability, T/C [5]: 3.8%
viability, T/C [6]: 0.14%
viability, T/C [7]: 84.1%
viability, T/C [8]: 73.7%
viability, T/C [9]: 72.5%
viability, T/C [10]: 51.1%
viability, T/C [11]: 10.7%
viability, T/C [12]: 0.13%
viability, T/C [13]: 74.7%
viability, T/C [14]: 70.7%
viability, T/C [15]: 67.5%
viability, T/C [16]: 63.4%
viability, T/C [17]: 7%
viability, T/C [18]: 0.12%
viability, T/C [19]: 59.9%
viability, T/C [20]: 61.4%
viability, T/C [21]: 54%
viability, T/C [22]: 43.2%
viability, T/C [23]: 6.48%
viability, T/C [24]: 0.13%
viability, T/C [25]: 42.6%
viability, T/C [26]: 49.1%
viability, T/C [27]: 47.3%
viability, T/C [28]: 43.3%
viability, T/C [29]: 2.17%
viability, T/C [30]: 0.59%

Cn1nccc1Nc1nccc(-c2ccn(C(CO)c3ccc(Cl)c(F)c3)c(=O)c2)n1 (stereo not given) + CC(C)NCC(C(=O)N1CCN(c2ncnc3c2C(C)CC3O)CC1)c1ccc(Cl)cc1
pIC50 (second compound 0.1 µM): < 5.00
pIC50 (second compound 0.316 µM): < 5.00
pIC50 (second compound 1 µM): < 5.00
pIC50 (second compound 3.16 µM): < 5.00
pIC50 (second compound 10 µM): > 7.50
viability, T/C [1]: 82.7%
viability, T/C [2]: 85.4%
viability, T/C [3]: 91%
viability, T/C [4]: 116%
viability, T/C [5]: 113%
viability, T/C [6]: 98.5%
viability, T/C [7]: 72.7%
viability, T/C [8]: 77.4%
viability, T/C [9]: 78.3%
viability, T/C [10]: 77.6%
viability, T/C [11]: 99.6%
viability, T/C [12]: 76.8%
viability, T/C [13]: 65.2%
viability, T/C [14]: 66.7%
viability, T/C [15]: 74.4%
viability, T/C [16]: 74.6%
viability, T/C [17]: 77.7%
viability, T/C [18]: 77.5%
viability, T/C [19]: 51.9%
viability, T/C [20]: 55%
viability, T/C [21]: 52.1%
viability, T/C [22]: 56.2%
viability, T/C [23]: 64.2%
viability, T/C [24]: 72.6%
viability, T/C [25]: 43.8%
viability, T/C [26]: 41%
viability, T/C [27]: 38.4%
viability, T/C [28]: 49.4%
viability, T/C [29]: 44.2%
viability, T/C [30]: 44.2%

Cn1ncnc1[C@H]1c2n[nH]c(=O)c3cc(F)cc(c23)N[C@@H]1c1ccc(F)cc1 + CC(C)NCC(C(=O)N1CCN(c2ncnc3c2C(C)CC3O)CC1)c1ccc(Cl)cc1
pIC50 (second compound 0.1 µM): < 7.00
pIC50 (second compound 0.316 µM): < 7.00
pIC50 (second compound 1 µM): < 7.00
pIC50 (second compound 3.16 µM): 7.69
pIC50 (second compound 10 µM): > 9.50
viability, T/C (second compound 0.1 µM, first compound 0.000316 µM): 98.7%
viability, T/C (second compound 0.1 µM, first compound 0.001 µM): 92.8%
viability, T/C (second compound 0.1 µM, first compound 0.00316 µM): 89.7%
viability, T/C (second compound 0.1 µM, first compound 0.01 µM): 87.5%
viability, T/C [1]: 79.8%
viability, T/C [2]: 85.5%
viability, T/C (second compound 0.316 µM, first compound 0.000316 µM): 74.4%
viability, T/C (second compound 0.316 µM, first compound 0.001 µM): 79.9%
viability, T/C (second compound 0.316 µM, first compound 0.00316 µM): 81.2%
viability, T/C (second compound 0.316 µM, first compound 0.01 µM): 72.5%
viability, T/C [7]: 71.8%
viability, T/C [8]: 82.6%
viability, T/C (second compound 1 µM, first compound 0.000316 µM): 67.9%
viability, T/C (second compound 1 µM, first compound 0.001 µM): 75.6%
viability, T/C (second compound 1 µM, first compound 0.00316 µM): 67.2%
viability, T/C (second compound 1 µM, first compound 0.01 µM): 62.3%
viability, T/C [13]: 63%
viability, T/C [14]: 56.5%
viability, T/C (second compound 3.16 µM, first compound 0.000316 µM): 59%
viability, T/C (second compound 3.16 µM, first compound 0.001 µM): 56.3%
viability, T/C (second compound 3.16 µM, first compound 0.00316 µM): 58.3%
viability, T/C (second compound 3.16 µM, first compound 0.01 µM): 50.1%
viability, T/C [19]: 47.4%
viability, T/C [20]: 46.4%
viability, T/C (second compound 10 µM, first compound 0.000316 µM): 42.3%
viability, T/C (second compound 10 µM, first compound 0.001 µM): 46.5%
viability, T/C (second compound 10 µM, first compound 0.00316 µM): 39.9%
viability, T/C (second compound 10 µM, first compound 0.01 µM): 36.1%
viability, T/C [25]: 41.5%
viability, T/C [26]: 36.4%
